# Results reported in ChEMBL document CHEMBL1201862, “PubChem BioAssay data set” (2004).
# Activity calls are given as the source filed them.
# Columns and labels:
# BJ [1] = experiment: cytotoxicity toward BJ-TERT fibroblasts, dose response, cell-based, RAS-independent, luminescence (AID 1933); assay type: functional; conditions: Homo sapiens
# BJ [2] = experiment: cells; assay type: functional, cell-based; conditions: Homo sapiens
# [3] = target: Luciferin 4-monooxygenase (Photinus pyralis, UniProt P08659); experiment: firefly luciferase enzyme inhibitors, dose response, biochemical, luminescence (AID 1891)
# Chain of Luciferin 4-monooxygenase (P08659 whole entry): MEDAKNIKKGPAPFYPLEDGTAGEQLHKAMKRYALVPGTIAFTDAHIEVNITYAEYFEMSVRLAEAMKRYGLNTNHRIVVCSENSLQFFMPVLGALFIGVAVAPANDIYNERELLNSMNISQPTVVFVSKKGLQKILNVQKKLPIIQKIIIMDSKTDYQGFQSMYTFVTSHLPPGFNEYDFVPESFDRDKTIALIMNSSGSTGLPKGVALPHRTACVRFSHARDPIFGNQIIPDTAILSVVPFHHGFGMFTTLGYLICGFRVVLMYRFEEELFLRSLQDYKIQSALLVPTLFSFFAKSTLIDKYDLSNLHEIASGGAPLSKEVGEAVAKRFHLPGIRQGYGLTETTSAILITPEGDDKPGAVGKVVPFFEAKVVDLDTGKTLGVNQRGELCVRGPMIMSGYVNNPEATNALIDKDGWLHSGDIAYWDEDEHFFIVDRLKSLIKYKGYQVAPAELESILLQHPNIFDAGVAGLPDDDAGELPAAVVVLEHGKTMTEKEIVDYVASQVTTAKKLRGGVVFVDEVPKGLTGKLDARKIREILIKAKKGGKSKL
# [4] = Luminescence Cell-Based Dose Confirmation HTS to Identify Inhibitors of Platelet Dense Granule Release. [Related pubchem assays: 1663 (Primary HTS), 1678 (Summary of Project)]; assay type: functional
# BJ [5] = experiment: cytotoxicity toward BJ-TERT-LT-ST fibroblasts, dose response, cell-based, RAS-independent, luminescence (AID 1935); assay type: functional; conditions: Homo sapiens;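 also: BJ fibroblasts immortalized with TERT plus LT and ST oncogenes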
# [6] = cytotoxicity toward DRD oncogenic fibroblasts, dose response, cell-based, non-viral oncogenic, luminescence (AID 1934); assay type: functional; conditions: Homo sapiens
# [7] = cytotoxicity in HEK-293T cells, dose response, cytotoxicity control for TCR NF-kB inhibitor project, luminescence, T-cell screen hits (AID 489026); assay type: functional, cell-based;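 also: cells exposed to compound about 14 hours before the viability readout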
# [8] = inhibitors of HIV Env-driven cell fusion, dose response, cherry-pick (AID 652057); assay type: functional, cell-based
# [9] = CEM21 lymphoblast cell cytotoxicity, dose response, cytotoxicity control for viral fusion inhibitor project, CellTiter-Glo luminescence, cherry-picked (AID 652042); assay type: functional, cell-based;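 also: potency for signal decrease meaning cytotoxicity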
# [10] = ZM109 Env clade C HIV-1 fusion inhibitors, dose response, HeLa effector, CEM target cells, luciferase, cherry-pick (AID 652058); assay type: functional, cell-based
# Paired box protein Pax-8 = Paired box protein Pax-8 (Homo sapiens, UniProt Q06710); experiment: inhibitors of PAX8-driven TPO luciferase reporter, dose response, RMG-I cells, cherry-pick (AID 687027); assay type: functional, cell-based;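 also: luciferase reporter driven by Pax8 target thyroperoxidase promoter measured by SteadyGlo luminescence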
# Chain of Paired box protein Pax-8 (Q06710 whole entry, the tested form may be a part): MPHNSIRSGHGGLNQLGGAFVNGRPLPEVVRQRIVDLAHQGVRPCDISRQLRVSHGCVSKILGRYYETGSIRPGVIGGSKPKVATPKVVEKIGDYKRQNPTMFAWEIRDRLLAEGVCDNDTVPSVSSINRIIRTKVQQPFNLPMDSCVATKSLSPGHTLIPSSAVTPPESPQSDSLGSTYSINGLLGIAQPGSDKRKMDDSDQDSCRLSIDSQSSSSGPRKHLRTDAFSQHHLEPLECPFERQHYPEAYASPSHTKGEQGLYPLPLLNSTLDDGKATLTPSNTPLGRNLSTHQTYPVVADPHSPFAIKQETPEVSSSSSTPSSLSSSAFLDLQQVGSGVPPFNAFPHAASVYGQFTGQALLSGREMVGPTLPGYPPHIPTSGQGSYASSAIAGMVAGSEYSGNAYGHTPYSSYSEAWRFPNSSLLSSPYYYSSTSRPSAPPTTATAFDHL
# [11] = off-target signal loss in HeLa-CEM21 co-culture – HeLa F-luc CTL cells, cherry-picked, counter-screen for HIV-1 Env fusion inhibitor project, dose response (AID 652040); assay type: functional, cell-based;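 also: potency for signal decrease marking cytotoxic or nonspecific inhibition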
# [12] = inhibitors of clade B AD8 Env fusion, dose response, cell-based, cherry-pick (AID 652062); assay type: functional;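 also: luciferase signal from cell-cell fusion driven by HIV-1 clade B AD8 Env; potency is for inhibitors of fusion seen as a drop in luminescence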
# [13] = A549 cell cytotoxicity, dose response, cytotoxicity control, plate reader, cherry-pick, antagonist series (AID 743412); assay type: functional, cell-based
# [14] = HepG2 cell cytotoxicity, dose response, cytotoxicity control, plate reader, cherry-pick, antagonist series (AID 743416); assay type: functional, cell-based
# [15] = LGR2 antagonists, dose response, cell-based, HEK293, CRE-luciferase reporter, cherry pick, set 2 (AID 743343); assay type: functional;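 also: transfected cells were stimulated with diluted bursicon conditioned medium after compound addition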
# [16] = non-specific cell cytotoxicity, dose response, cytotoxicity control for PAX8 inhibitor project, plate reader, dry powder samples (AID 743021); assay type: functional, cell-based
# [17] = MC4R antagonists, dose response, counter-screen for LGR2 antagonist project, cell-based, plate reader, cherry pick (AID 743444); assay type: functional;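 also: transfected HEK 293 cells stimulated with alpha-MSH peptide; potency of inhibitors of the alpha-MSH evoked signal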
# [18] = HEK293 cell cytotoxicity, dose response, cytotoxicity control, plate reader, cherry-picked samples (AID 743446); assay type: functional, cell-based
# [19] = inhibitors of non-replicating M. tuberculosis, dose response, luciferase, dry powder (AID 651619); assay type: functional; conditions: Mycobacterium tuberculosis
# [20] = inhibitors of non-replicating M. tuberculosis, dose response, luciferase, dry powder (AID 651620); assay type: functional; conditions: Mycobacterium tuberculosis
# Protein skinhead-1 = target: T1, Protein skinhead-1 (Caenorhabditis elegans, UniProt P34707); assay type: functional
# T1 sequence (P34707 whole entry): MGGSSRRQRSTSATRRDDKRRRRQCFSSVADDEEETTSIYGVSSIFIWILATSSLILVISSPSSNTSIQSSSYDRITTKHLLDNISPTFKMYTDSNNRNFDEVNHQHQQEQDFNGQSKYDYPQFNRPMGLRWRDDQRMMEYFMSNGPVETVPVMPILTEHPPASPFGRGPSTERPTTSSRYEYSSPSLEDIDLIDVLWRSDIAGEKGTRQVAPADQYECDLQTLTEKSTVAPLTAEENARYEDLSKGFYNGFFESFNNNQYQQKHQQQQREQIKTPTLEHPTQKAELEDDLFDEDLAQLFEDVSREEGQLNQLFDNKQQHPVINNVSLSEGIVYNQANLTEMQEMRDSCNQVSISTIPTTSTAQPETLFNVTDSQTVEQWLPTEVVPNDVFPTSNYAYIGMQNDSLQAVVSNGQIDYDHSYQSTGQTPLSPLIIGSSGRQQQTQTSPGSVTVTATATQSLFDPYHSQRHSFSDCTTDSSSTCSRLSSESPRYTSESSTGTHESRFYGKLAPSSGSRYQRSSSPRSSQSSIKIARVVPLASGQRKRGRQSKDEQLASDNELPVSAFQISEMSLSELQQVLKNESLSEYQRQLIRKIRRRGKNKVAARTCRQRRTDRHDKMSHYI
# [21] = Luminescence-based cell-based high throughput dose response assay to identify activators of the DAF-12 from the parasite S. stercoralis (ssDAF-12).; assay type: functional
# [22] = target: T2, Oxysterols receptor LXR-beta (Homo sapiens, UniProt P55055); experiment: LXR agonists, Gal4 luciferase reporter, dose response, counter-screen for ssDAF-12 agonist project, cell-based, luminescence, HEK293, S. stercoralis campaign (AID 720737); assay type: functional; conditions: read-out: IC50 (the source's name)
# T2 sequence (P55055 whole entry): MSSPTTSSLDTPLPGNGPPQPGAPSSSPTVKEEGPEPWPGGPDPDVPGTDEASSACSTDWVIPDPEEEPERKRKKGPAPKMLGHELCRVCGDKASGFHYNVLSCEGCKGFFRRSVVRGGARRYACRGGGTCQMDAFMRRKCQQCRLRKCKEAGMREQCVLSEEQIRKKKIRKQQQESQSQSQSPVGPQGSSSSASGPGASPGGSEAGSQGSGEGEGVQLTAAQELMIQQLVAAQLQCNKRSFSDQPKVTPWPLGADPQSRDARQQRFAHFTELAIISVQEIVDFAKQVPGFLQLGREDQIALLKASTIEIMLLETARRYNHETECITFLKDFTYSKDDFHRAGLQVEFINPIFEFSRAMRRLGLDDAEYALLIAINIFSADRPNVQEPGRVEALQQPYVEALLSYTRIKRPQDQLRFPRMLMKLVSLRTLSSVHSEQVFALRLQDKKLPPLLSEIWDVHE
# [23] = target: T2, Oxysterols receptor LXR-beta; assay type: functional, cell-based
# Cytochrome P450 3A4 = Cytochrome P450 3A4 (Homo sapiens, UniProt P08684);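 also: CYP3A4 tested as one member of a cytochrome P450 panel screen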
# Chain of Cytochrome P450 3A4 (P08684 whole entry): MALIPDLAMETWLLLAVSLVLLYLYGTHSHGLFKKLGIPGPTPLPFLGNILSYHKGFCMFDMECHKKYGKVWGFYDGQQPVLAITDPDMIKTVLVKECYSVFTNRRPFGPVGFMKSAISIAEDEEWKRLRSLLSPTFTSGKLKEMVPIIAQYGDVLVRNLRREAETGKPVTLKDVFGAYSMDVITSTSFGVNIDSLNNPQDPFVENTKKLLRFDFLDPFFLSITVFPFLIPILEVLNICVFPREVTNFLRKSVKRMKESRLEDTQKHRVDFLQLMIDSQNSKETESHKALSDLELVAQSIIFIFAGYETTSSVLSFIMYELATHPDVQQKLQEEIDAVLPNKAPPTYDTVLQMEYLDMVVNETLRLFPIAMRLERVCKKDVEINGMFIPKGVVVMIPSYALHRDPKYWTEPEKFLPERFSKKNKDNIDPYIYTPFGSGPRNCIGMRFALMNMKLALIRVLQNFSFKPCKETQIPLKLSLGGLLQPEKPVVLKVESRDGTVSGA
# [24] = Shn3 3'UTR reporter inhibitors, dose response, cell-based, Clone20 osteoblasts, firefly luciferase, cherry-picked (AID 624132); assay type: functional;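 also: firefly luciferase luminescence from reporter carrying the Shn3 3'UTR in osteoblasts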
# [25] = HepG2 cell cytotoxicity, dose response, cytotoxicity control for Shn3 inhibitor project, CellTiter-Glo, cherry-picked (AID 624134); assay type: functional, cell-based
# [26] = control 3'UTR Renilla luciferase suppression, dose response, counter-screen for Shn3 inhibitor project, cell-based, Clone20-Shn3RL, cherry-picked (AID 624133); assay type: functional
# [27] = reduction of Shn3 3'UTR firefly luciferase signal, dose response, Schnurri-3 inhibitor project, cell-based, Clone20 osteoblasts, cherry-pick, set 2 (AID 720490); assay type: functional;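 also: actives lower the luminescence signal as inhibitors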
# [28] = target: T3, Methionyl-tRNA synthetase, putative (Trypanosoma brucei brucei, UniProt Q38C91); assay type: functional, Trypanosoma brucei brucei strain 927/4 GUTat10.1
# T3 sequence (Q38C91 whole entry): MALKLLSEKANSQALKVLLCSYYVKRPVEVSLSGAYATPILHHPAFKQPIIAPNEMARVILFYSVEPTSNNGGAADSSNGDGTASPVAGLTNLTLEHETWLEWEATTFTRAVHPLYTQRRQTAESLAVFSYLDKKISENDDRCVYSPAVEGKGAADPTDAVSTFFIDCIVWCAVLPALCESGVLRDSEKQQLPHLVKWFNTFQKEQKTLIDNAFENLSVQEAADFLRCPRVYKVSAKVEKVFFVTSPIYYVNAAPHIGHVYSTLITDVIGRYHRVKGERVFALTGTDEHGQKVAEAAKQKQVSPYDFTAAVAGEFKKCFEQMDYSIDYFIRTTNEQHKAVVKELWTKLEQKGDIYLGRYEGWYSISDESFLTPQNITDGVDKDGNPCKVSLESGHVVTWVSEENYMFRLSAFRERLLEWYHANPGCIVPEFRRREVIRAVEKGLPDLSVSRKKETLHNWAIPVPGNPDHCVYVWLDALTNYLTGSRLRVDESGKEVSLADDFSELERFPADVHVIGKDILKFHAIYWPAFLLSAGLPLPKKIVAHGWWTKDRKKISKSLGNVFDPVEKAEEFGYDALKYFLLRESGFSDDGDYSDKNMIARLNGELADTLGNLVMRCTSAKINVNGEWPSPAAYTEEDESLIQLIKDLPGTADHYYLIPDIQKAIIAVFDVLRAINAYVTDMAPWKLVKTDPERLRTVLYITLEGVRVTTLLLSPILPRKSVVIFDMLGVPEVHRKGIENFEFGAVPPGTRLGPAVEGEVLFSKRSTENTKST
# [29] = Counterscreen for inhibitors of Trypanosoma brucei methionyl tRNA synthetase (MetRS): Luminescence-based cell-based high throughput dose response assay to identify compounds that are cytotoxic to Jurkat human T lymphocyte cells.; assay type: functional
# [30] = target: T3, Methionyl-tRNA synthetase, putative; assay type: functional, Trypanosoma brucei brucei strain 927/4 GUTat10.1; remark: listed apart in the source
# [31] = Late stage counterscreen for inhibitors of Trypanosoma brucei methionyl tRNA synthetase (MetRS): Luminescence-based cell-based high throughput dose response assay to identify compounds that are cytotoxic to Jurkat human T lymphocyte cells.; assay type: functional
structure (smiles),measurement,setting,value
COc1ccccc1C(=O)Nc1nc2ccccc2s1,EC50,BJ [1],8.4 µM (active)
same,EC50,BJ [2],5.6 µM (active)
same,EC50,[3],296 nM (active)
same,EC50,[4],3.96 µM (active)
same,EC50,BJ [5],15.8 µM (active)
same,EC50,[6],5.93 µM (active)
same,IC50,[7],> 80 µM (inactive)
same,AC50,[8],2.05 µM (active)
same,AC50,[9],13.7 µM (active)
same,AC50,[10],10.9 µM (active)
same,AC50,Paired box protein Pax-8,3.69 µM (active)
same,AC50,[11],2.59 µM (active)
same,AC50,[12],2.44 µM (active)
same,AC50,[13],3.04 µM (active)
same,AC50,[14],3.64 µM (active)
same,AC50,[15],121 nM (active)
same,AC50,[16],10.5 µM (active)
same,AC50,[17],172 nM (active)
same,AC50,[18],3.61 µM (active)
c1ccc(-c2nnc(SC3CCCCC3)o2)cc1,IC90,[19],2 µM (active)
same,IC90,[20],2 µM (active)
Fc1ccc(-c2cn3cc(C(F)(F)F)cc(Cl)c3n2)cc1,IC50,Protein skinhead-1,> 100 µM (inactive)
same,IC50,[21],> 67.5 µM (inactive)
same,EC50,[22],> 67.5 µM (inactive)
same,EC50,[23],> 67.5 µM (inactive)
same,AC50,Cytochrome P450 3A4,14.1 µM (inconclusive)
same,EC50,cells,> 67.5 µM (inactive)
Cn1c(=O)c2c(nc(NCc3ccco3)n2CCc2ccccc2)n(C)c1=O,AC50,[24],2.34 µM (active)
same,AC50,[25],50.9 µM (active)
same,AC50,[26],18.3 µM (active)
same,AC50,[27],2.27 µM (active)
O=C(NNC(=O)c1ccc(-n2cncn2)c([N+](=O)[O-])c1)c1ccc(Cl)cc1,IC50,[28],4.43 µM (active)
same,IC50,[29],83.2 µM (inactive)
same,IC50,[30],2.72 µM (active)
same,IC50,[31],> 83.3 µM (inactive)
